In patent US20100028414A1, “COMBINATION OF TYROSINE KINASE INHIBITOR AND HER-2/NEU FOR CANCER THERAPY” (priority 2004, published 2010):

Tests used:
[1] = system: phospho-Akt; assay: Western blot of activated phospho-Akt, BT474 cells; format: cell-based, human; conditions: 72 hr, FIG. 13
Description: (§1) To assess the levels of various proteins in cells, whole cell extracts were prepared by scraping cells off petri dishes, washing the cell pellet twice in phosphate buffered saline (PBS), and then resuspending the pellet in two-packed-cell volumes of RIPA buffer(150 mM NaCl, 50 mM Tris-HCl, pH 7.5, 0.25% (w/v) deoxycholate, 1% NP-40, 5 mM sodium orthovanadate, 2 mM sodium fluoride, and a protease inhibitor cocktail). Protein concentrations were determined using a modification of the Bradford method (Bio-Rad Laboratory). […] The immunoprecipitates were separated by 4-15% gradient SDS-polyacrylamide […] gel electrophoresis (SDS-PAGE), and ErbB receptors were detected by Western Blot with anti-ErbB receptor antibodies.
(§2) Steady state levels of Survivin, total ErbB2, phosphorylated ErbB2 (pErbB2 or pTyr), total Erk1/2 , activated Erk1/2 (p-Erk), total pErbB3, activated pErbB3 (pErbB3), total AKT protein and activated Akt (p-Akt) protein were assessed by Western blot. Levels of pErbB2 were assessed using an antibody that bound to multiple tyrosine-phosphorylated forms of ErbB2 (i.e., the antibody was not phosphorylation-site specific). […]
(§3) For Western blot, equal amounts of proteins were resolved by either 7.5% or 4-15% gradient SDS polyacrylamide gel electrophoresis under reducing conditions. […] Efficiency and equal loading of proteins was evaluated by Ponceau S staining. […]

[2] = target: T1, phospho-ErbB2 (p-ErbB2) (Homo sapiens, UniProt P04626); assay: Western blot of activated phospho-ErbB2, BT474 cells; format: cell-based; conditions: lapatinib 0.1 μM, pAb 100 μg/ml, trastuzumab 10 μg/ml, 72 hr, FIG. 12A bottom
T1 construct: whole cell extracts were prepared by scraping cells off petri dishes; host or cells: BT474
Description: as §1, §2, §3

[3] = system: BT474 human breast cancer cells; assay: In vitro growth inhibition assay ([3H] thymidine incorporation), BT474; format: cell-based; conditions: 0.01 μM Lapatinib, 50 μg/ml pAb, 72 h, FIG. 11A
Description: (§4) The antiproliferative effect of vaccine induced anti HER2 polyclonal antibodies (pAb) in combination with Lapatinib was evaluted on human breast cancer cells overexpressing the HER2/neu molecule (BT474 and SKBR3 cells) using the [^3H] thymidine incorporation method. Briefly, 10e4 cells were seeded in 200 μl, in triplicate, in 96-w plates and incubated for 72 h at 37° C. in • 1) medium; • 2) medium containing Lapatinib alone (0.01 μM); • 3) medium containing pAb alone (50 μg/ml); • 4) medium containing pre-immune pAb (TA2021) (50 μg/ml); • 5) a combination of (2) Lapatinib (0.01 μM ) and (3) pAb (50 μg/ml); or • 6) a combination of (2) Lapatinib (0.01 μM ) and (4) pre-immune pAb (TA2021) (50 μg/ml).
(§5) 1 μCi of [^3H] Thymidine (5 Ci/mmol; Amersham) was added for an additional 24 h after which cells were harvested by trypsinisation onto filter plates and the incorporated radioactivity was counted in a beta counter. Results were expressed in cpm and the percentage of growth inhibition was calculated referring to the medium.

[4] = system: SKBR3 human breast cancer cells; assay: In vitro growth inhibition assay ([3H] thymidine incorporation), SKBR3; format: cell-based; conditions: 0.01 μM Lapatinib, 50 μg/ml pAb, 72 h, FIG. 11B
Description: as §4, §5

[5] = system: survivin; assay: Western blot of steady state survivin protein, BT474 cells; format: cell-based, human; conditions: lapatinib 0.1 μM, pAb 100 μg/ml, trastuzumab 10 μg/ml, 72 hr, FIG. 12A bottom
Description: as §1, §2, §3

[6] = system: phospho-Erk1/2; assay: Western blot of activated phospho-Erk1/2, BT474 cells; format: cell-based, human; conditions: 72 hr, FIG. 13
Description: as §1, §2, §3

[7] = target: T2, total ErbB2 (Homo sapiens, UniProt P04626); assay: Western blot of total ErbB2, BT474 cells; format: cell-based; conditions: lapatinib 0.1 μM, pAb 100 μg/ml, trastuzumab 10 μg/ml, 72 hr, FIG. 12A bottom
T2 construct: whole cell extracts were prepared by scraping cells off petri dishes; host or cells: BT474
Description: as §1, §2, §3

[8] = system: BT474 cells; assay: Apoptosis by annexin V staining and flow cytometry, BT474; format: cell-based, human; conditions: lapatinib 0.1 μM, pAb 100 μg/ml, trastuzumab 10 μg/ml, 72 hr, FIG. 12A top
Description: After harvesting the cells with trypsin-EDTA, 5000 cells in 50 μl were sampled on 96-well microplates. The cells were stained directly in the microplate with Annexin V-PE and Nexin 7-AAD in 1× Nexin Buffer in a 200 μl final reaction volume. After incubating for 20 minutes at room temperature, the reaction samples were ready to be acquired in the Guava PCA-96-system (Guava Technology, Inc., Hayward, Calif. USA).
7-AAD binds to cellular nuclear material after cellular membranes break down in late apoptosis. Annexin-V staining indicates early apoptotic changes that precede the loss of cellular membrane integrity. Use of Annexin-V in conjunction with 7-amino-actinomycin D (7-AAD) thus can identify both early and late apoptotic cells.
Flow cytometry results were graphed as dot plot results (not shown) with annexin V on the X-axis and 7-AAD on the Y-axis. Low annexin V and low 7-AAD represented viable cells; low annexin V and high 7-AAD indicated nuclear debris; cells with high annexin V staining indicated apoptotic cells.

T2 sequence (P04626 23-1255): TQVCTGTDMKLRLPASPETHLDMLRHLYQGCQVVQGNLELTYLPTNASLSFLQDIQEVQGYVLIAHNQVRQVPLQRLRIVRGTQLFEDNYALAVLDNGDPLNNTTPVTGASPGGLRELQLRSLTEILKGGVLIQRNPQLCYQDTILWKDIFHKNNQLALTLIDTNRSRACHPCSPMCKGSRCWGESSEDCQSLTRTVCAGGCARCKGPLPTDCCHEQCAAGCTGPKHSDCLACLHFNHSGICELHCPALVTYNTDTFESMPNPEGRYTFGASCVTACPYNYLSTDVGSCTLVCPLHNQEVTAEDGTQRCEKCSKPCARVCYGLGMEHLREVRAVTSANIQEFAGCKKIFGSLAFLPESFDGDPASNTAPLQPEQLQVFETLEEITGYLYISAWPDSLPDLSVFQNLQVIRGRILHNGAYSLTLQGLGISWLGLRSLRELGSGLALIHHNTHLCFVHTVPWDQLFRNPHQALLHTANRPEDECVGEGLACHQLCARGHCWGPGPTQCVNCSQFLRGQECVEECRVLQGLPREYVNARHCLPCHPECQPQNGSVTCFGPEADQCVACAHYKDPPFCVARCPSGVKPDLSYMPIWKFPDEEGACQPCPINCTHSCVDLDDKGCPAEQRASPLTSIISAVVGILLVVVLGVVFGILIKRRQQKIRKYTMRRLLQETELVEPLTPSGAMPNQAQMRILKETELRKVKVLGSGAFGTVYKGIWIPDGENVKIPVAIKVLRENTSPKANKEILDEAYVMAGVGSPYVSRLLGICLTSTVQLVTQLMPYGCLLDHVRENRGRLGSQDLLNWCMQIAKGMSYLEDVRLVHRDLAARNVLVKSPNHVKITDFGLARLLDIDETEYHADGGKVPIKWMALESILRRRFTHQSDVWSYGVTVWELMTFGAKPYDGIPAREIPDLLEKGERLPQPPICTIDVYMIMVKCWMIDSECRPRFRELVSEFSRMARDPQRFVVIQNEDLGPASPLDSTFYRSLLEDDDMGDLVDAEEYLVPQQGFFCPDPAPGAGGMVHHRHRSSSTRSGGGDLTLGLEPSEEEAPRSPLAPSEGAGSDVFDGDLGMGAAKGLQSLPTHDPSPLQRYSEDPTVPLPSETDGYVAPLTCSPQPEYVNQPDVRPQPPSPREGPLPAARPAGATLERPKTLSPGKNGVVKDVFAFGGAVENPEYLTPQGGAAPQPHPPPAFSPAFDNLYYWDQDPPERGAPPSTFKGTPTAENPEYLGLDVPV
T1 sequence (P04626 23-1255): as above

In the case of `CS(=O)(=O)CCNCc1ccc(-c2ccc3ncnc(Nc4ccc(OCc5cccc(F)c5)c(Cl)c4)c3c2)o1` [lapatinib, N-{3-Chloro-4-[(3-fluorobenzyl)oxy]phenyl}-6-[5-({[2-(methanesulphonyl)ethyl]amino}methyl)-2-furyl]-4-quinazolmamine], the “steady state levels of pAkt” value [1] is reported as “reduced”, the “steady-state levels of activated, phosphorylated ErbB2 protein (pErbB2)” value [2] is reported as “inhibited” and the growth inhibition [3] is reported as “only modest growth inhibition”. The growth inhibition [4] was “only modest growth inhibition”, the survivin protein expression [5] was “inhibited” and the “steady state levels of pErk1/2” value [6] was “reduced”. For the same compound, the “total ErbB2 protein” value [7] was “without affecting total ErbB2 protein” and the apoptosis [8] was “slight increase in apoptosis”.
